How the values were obtained:
[1] = biological target: T1, Type-2 angiotensin II receptor (Homo sapiens, UniProt P50052); test: Displacement of [125I][Sar1 Ile8]-angiotensin II binding to human AT2R expressed in HEK293 cells; format: cell-based
T1 sequence (P50052 whole entry): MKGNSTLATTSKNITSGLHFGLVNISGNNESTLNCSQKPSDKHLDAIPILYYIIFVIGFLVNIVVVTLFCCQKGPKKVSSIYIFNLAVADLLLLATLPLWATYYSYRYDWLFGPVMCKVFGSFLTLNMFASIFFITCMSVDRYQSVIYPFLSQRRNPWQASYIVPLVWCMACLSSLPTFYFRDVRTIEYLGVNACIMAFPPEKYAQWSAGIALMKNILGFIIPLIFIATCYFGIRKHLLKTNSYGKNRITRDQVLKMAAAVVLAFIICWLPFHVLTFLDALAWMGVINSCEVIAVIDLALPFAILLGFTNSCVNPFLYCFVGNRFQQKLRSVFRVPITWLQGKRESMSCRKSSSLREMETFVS

[2] = Stability in human liver microsomes assessed as half life at 1 uM in presence of NADPH by LC-MS/MS analysis; format: ADME, Microsome
[3] = Stability in mouse liver microsomes assessed as half life at 1 uM in presence of NADPH by LC-MS/MS analysis; format: ADME, Microsome; conditions: time 60 min
[4] = Stability in human hepatocytes assessed as half life at 1 uM by LC-MS/MS analysis; format: ADME, cell-based, Hepatocyte
[5] = Apparent permeability across apical to basal side in human Caco-2 cells at 5 uM measured for 15 to 60 mins by LC-MS/MS analysis; format: ADME, cell-based; conditions: time 15-60 min
[6] = Efflux ratio of apparent permeability in human Caco-2 cells at 5 uM measured for 15 to 60 mins by LC-MS/MS analysis; format: ADME, cell-based; conditions: time 15-60 min
[7] = biological target: T2, Type-1 angiotensin II receptor (Homo sapiens, UniProt P30556); test: Inhibition of [125I][Sar1 Ile8]-angiotensin II binding to human AT1R expressed in HEK293 cells; format: cell-based
T2 sequence (P30556 whole entry): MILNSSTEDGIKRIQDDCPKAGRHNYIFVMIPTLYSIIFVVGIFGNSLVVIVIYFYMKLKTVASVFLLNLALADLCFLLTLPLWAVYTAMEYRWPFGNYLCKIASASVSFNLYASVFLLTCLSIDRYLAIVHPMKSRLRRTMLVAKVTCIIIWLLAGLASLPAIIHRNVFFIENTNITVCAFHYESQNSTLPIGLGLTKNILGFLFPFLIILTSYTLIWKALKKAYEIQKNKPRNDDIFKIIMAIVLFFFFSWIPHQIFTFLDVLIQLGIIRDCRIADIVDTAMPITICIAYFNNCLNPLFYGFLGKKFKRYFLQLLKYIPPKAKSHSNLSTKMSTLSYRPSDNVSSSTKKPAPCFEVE

Thoracic aorta = test: Induction of vasorelaxation in pre-contracted thoracic aorta of FVB/N mouse; format: functional, tissue-based

With `CC(C)Cc1cc(-c2cccc(Cn3ccnc3)c2)c(S(=O)(=O)Nc2nccc(C(N)=O)n2)s1.O=C(O)C(F)(F)F` the Ki [1] was 1100 nM, the half-life at 1 µM [2] was 43 min and the half-life at 1 µM [3] was 36 min.

With `CC(C)Cc1cc(-c2cccc(C(=O)Cn3ccnc3C(C)(C)C)c2)c(S(=O)(=O)Nc2ncccn2)s1` the Ki [1] was 4.9 nM, the half-life at 1 µM [2] was 20 min and the half-life at 1 µM [3] was 17 min. It also gave a half-life at 1 µM [4] of 77 min, a Papp A→B at 5 µM [5] of 4.9 ×10⁻⁶ cm/s and an efflux ratio at 5 µM [6] of 77. For the same molecule, the Ki [7] was > 3000 nM and the Activity (Thoracic aorta) was “Dose-Dependent Effect”.

Work on `CC(C)Cc1cc(-c2cccc(C(=O)Cn3ccnc3C(C)(C)C)c2)c(S(=O)(=O)Nc2ncc(C#N)cn2)s1.O=C(O)C(F)(F)F` yielded a Ki [1] of 4.3 nM, a half-life at 1 µM [2] of 1.2 min and a half-life at 1 µM [3] of 2.3 min.

For `CC(C)Cc1cc(-c2cccc(C(=O)Cn3ccnc3C(C)(C)C)c2)c(S(=O)(=O)Nc2ncc(Cl)cn2)s1.O=C(O)C(F)(F)F`, the Ki [1] was 3.3 nM, the half-life at 1 µM [2] was 6.2 min and the half-life at 1 µM [3] was 11 min.

`CC(C)Cc1cc(-c2cccc(Cn3ccnc3)c2)c(S(=O)(=O)Nc2ncc(Br)cn2)s1` showed a Ki [1] of 42 nM, a half-life at 1 µM [2] of 14 min and a half-life at 1 µM [3] of 160 min.

For `CC(C)Cc1cc(-c2cccc(C(=O)Cn3ccnc3C(C)(C)C)c2)c(S(=O)(=O)Nc2ccc(C(F)(F)F)cn2)s1`, the Ki [1] was 29 nM, the half-life at 1 µM [2] was 2.3 min and the half-life at 1 µM [3] was 3.6 min.

`CC(C)Cc1cc(-c2cccc(Cn3ccnc3)c2)c(S(=O)(=O)Nc2nccs2)s1` showed a Ki [1] of 650 nM, a half-life at 1 µM [2] of 61 min and a half-life at 1 µM [3] of 210 min.

With `COc1ccc2c(c1OCc1ccccc1)C[C@@H](C(=O)O)N(C(=O)C(c1ccccc1)c1ccccc1)C2` [OLODANRIGAN] the Papp A→B at 5 µM [5] was 1.8 ×10⁻⁶ cm/s and the efflux ratio at 5 µM [6] was 32.

For `CC(C)Cc1cc(-c2cccc(C(=O)Cn3ccnc3C(C)(C)C)c2)c(S(=O)(=O)Nc2ncc(C(F)(F)F)cn2)s1`, the Ki [1] was 2 nM, the half-life at 1 µM [2] was 4.8 min and the half-life at 1 µM [3] was 12 min.

With `CC(C)Cc1cc(-c2cccc(Cn3ccnc3)c2)c(S(=O)(=O)Nc2nccc(C(F)(F)F)n2)s1.O=C(O)C(F)(F)F` the Ki [1] was 300 nM, the half-life at 1 µM [2] was 6.7 min and the half-life at 1 µM [3] was 10 min.

Molecule `CC(C)Cc1cc(-c2cccc(C(=O)Cn3ccnc3C(C)(C)C)c2)c(S(=O)(=O)Nc2ncc(Br)cn2)s1` has a Ki [1] of 1.5 nM, a half-life at 1 µM [2] of 4.3 min and a half-life at 1 µM [3] of 11 min.

In the case of `CC(C)Cc1cc(-c2cccc(C(=O)Cn3ccnc3C(C)(C)C)c2)c(S(=O)(=O)Nc2nccs2)s1`, the Ki [1] is reported as 96 nM, the half-life at 1 µM [2] is reported as 6.7 min and the half-life at 1 µM [3] is reported as 6.4 min.

Work on `CC(C)Cc1cc(-c2cccc(Cn3ccnc3)c2)c(S(=O)(=O)Nc2nc3ccccc3s2)s1.O=C(O)C(F)(F)F` yielded a Ki [1] of 800 nM, a half-life at 1 µM [2] of 56 min and a half-life at 1 µM [3] of 480 min.

In the case of `CCCCOC(=O)NS(=O)(=O)c1sc(CC(C)C)cc1-c1cccc(Cn2ccnc2)c1`, the Papp A→B at 5 µM [5] is reported as 3.4 ×10⁻⁶ cm/s.

`CC(C)Cc1cc(-c2cccc(C(=O)Cn3ccnc3C(C)(C)C)c2)c(S(=O)(=O)Nc2ncc(F)cn2)s1.O=C(O)C(F)(F)F` gave a Ki [1] of 1.7 nM, a half-life at 1 µM [2] of 16 min and a half-life at 1 µM [3] of 21 min.

`CC(C)Cc1cc(-c2cccc(Cn3ccnc3)c2)c(S(=O)(=O)Nc2nccc(C#N)n2)s1.O=C(O)C(F)(F)F` gave a Ki [1] of 100 nM, a half-life at 1 µM [2] of 12 min and a half-life at 1 µM [3] of 37 min.

Molecule `Cc1nc(NS(=O)(=O)c2sc(CC(C)C)cc2-c2cccc(Cn3ccnc3)c2)ncc1Cl` has a Ki [1] of 300 nM, a half-life at 1 µM [2] of 6.6 min and a half-life at 1 µM [3] of 23 min.

With `CC(C)Cc1cc(-c2cccc(C(=O)Cn3ccnc3C(C)(C)C)c2)c(S(=O)(=O)Nc2ccc(C#N)cc2)s1` the Ki [1] was 600 nM, the half-life at 1 µM [2] was 1.2 min and the half-life at 1 µM [3] was 2.3 min.

— ChEMBL document CHEMBL5518195, “N-(Heteroaryl)thiophene sulfonamides as angiotensin AT2 receptor ligands” (Eur J Med Chem, 2024)
